# Test results published in patent US12030903B2, “Antiviral compounds” (Gilead Sciences, Inc., priority 2020, dated 2024).
# Target: T1, DENV2 NS5 (Dengue virus type 2, UniProt P14340)
# T1 construct: His tag (pET28b, thrombin-cleavable) (N); made in house; host or cells: E. coli BL21 (DE3)
# Assay: DENV Pol IC50 (DENV2-NS5 polymerase assay)
# Assay type: biochemical
# Conditions: 100 nM DENV2 NS5, sshRNA template, 90 minutes at 30° C.
# Experimental: A 244 nucleotide secondary structureless heteropolymeric RNA (sshRNA) with sequence 5′-(UCAG)20(UCCAAG)14(UCAG)20-3′ (SEQ ID NO: 1) is used as the template with 5′-CUG-3′ primer in the DENV2-NS5 polymerase assay. Six two-fold dilutions of compounds starting from 200 nM and no inhibitor control are plated in 96-well plates. 100 nM DENV2 NS5 is preincubated for 5 minutes at room temperature in a reaction mixture containing 40 mM Tris-HCl (pH 7.5), 10 mM NaCl, 3 mM DTT, 0.2 unit/μL RNasin Plus RNase Inhibitor, 200 ng/μL sshRNA, 20 μM CUG and 2 mM MgCl2. Enzyme mix is added to compound dilutions and reactions initiated by the addition of a mixture containing 20 μM of three natural NTP plus 2 μM of analog:base matched competing natural NTP containing 1:100 α-33P-NTP. After 90 minutes at 30° C., 5 μL of the reaction mixtures are spotted on DE81 anion exchange paper. Filter papers are washed three times with Na2HPO4 (125 mM, pH 9) for 5 minutes, rinsed with water and ethanol, then air-dried and exposed to phosphorimager. Synthesized RNA is quantified using Typhoon Trio Imager and Image Quant TL Software and reaction rates are calculated by linear regression using GraphPad Prism 5.0. IC50 values are calculated in Prism by non-linear regression analysis using the dose-response (variable slope) equation (four-parameter logistic equation): Y=Bottom+(Top-Bottom)/(1+10^((Log IC50−X)*HillSlope)).
smiles,measurement,value
"Nc1ncnn2c([C@@H]3O[C@](CF)(COP(=O)(O)OP(=O)(O)OP(=O)(O)O)[C@@H](O)[C@H]3O)ccc12 [Example 2, sodium ((2R,3S,4R,5S)-5-(4-aminopyrrolo[2,1-f][1,2,4]triazin-7-yl)-2-(fluoromethyl)-3,4-dihydroxytetrahydrofuran-2-yl)methyl triphosphate]",IC50,737 nM
